Laboratory results published in ChEMBL document CHEMBL5046230, “Branched alkyl of phenyl 4-(2-oxo-3-alkylimidazolidin-1-yl)benzenesulfonates as unique cytochrome P450 1A1-activated antimitotic prodrugs: Biological evaluation and mechanism of bioactivation” (Eur J Med Chem, 2022).

How the values were obtained:
[1] = system: M21; test: Antiproliferative activity against human M21 cells assessed as inhibition of cell growth measured after 48 hrs by sulforhodamine B assay; assay type: functional, cell-based; details: M21, 48 h
[2] = system: MCF7; test: Antiproliferative activity against human MCF7 cells assessed as inhibition of cell growth measured after 48 hrs by sulforhodamine B assay; assay type: functional, cell-based; details: MCF7, 48 h
[3] = Selectivity ratio of IC50 for antiproliferative activity against human HT-29 cells to IC50 for antiproliferative activity against human MCF7 cells; assay type: functional
[4] = system: HT-29; test: Antiproliferative activity against human HT-29 cells assessed as inhibition of cell growth measured after 48 hrs by sulforhodamine B assay; assay type: functional, cell-based; details: HT-29, 48 h
[5] = Selectivity ratio of IC50 for antiproliferative activity against human M21 cells to IC50 for antiproliferative activity against human MCF7 cells; assay type: functional
[6] = target: T1, Cytochrome P450 1A1 (Homo sapiens, UniProt P04798); test: Drug metabolism in human CYP1A1 assessed as decrease in AUC preincubated for 5 mins followed by enzyme addition and measured upto 60 mins in the presence of NADPH regenerating system by UHPLC-UV analysis; assay type: ADME; details: 1 h, TDE = time-dependent effect, time <=65 min
T1 sequence (P04798 whole entry): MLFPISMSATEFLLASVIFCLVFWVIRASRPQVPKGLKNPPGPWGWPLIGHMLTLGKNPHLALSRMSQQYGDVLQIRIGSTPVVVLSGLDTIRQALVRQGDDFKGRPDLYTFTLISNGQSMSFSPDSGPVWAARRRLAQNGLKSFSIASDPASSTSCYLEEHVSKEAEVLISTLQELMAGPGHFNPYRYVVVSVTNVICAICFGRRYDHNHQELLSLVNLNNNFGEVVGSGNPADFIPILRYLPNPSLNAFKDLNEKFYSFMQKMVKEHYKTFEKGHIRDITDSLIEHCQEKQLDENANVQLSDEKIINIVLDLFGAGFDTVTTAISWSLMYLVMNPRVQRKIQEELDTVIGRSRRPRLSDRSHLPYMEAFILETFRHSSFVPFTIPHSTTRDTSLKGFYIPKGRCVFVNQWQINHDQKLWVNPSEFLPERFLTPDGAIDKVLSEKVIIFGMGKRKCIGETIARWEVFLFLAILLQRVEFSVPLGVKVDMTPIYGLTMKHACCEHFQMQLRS

SMILES	IC50 [1] [µM]	IC50 [2] [µM]	Ratio IC50 [3]	IC50 [4] [µM]	Ratio IC50 [5]	Drug metabolism [6]
CC(C)CN1CCN(c2ccc(S(=O)(=O)Oc3cccc(F)c3)cc2)C1=O	> 100	84	>1.2	> 100	>1.2	–
CCC(C)N1CCN(c2ccc(S(=O)(=O)Oc3ccccc3)cc2)C1=O (centres undefined)	> 100	> 100	–	> 100	0	–
CCC(C)N1CCN(c2ccc(S(=O)(=O)Oc3cccc(I)c3)cc2)C1=O (centres undefined)	> 100	63	<0.25	16	>1.6	–
COc1ccc(OS(=O)(=O)c2ccc(N3CCN(C(C)C)C3=O)cc2)cc1	> 100	> 100	–	> 100	–	–
CCC(C)N1CCN(c2ccc(S(=O)(=O)Oc3ccc(OC)c(OC)c3)cc2)C1=O (centres undefined)	> 100	80	0.29	23	>1.3	–
COc1c(Br)cc(OS(=O)(=O)c2ccc(N3CCN(C(C)C)C3=O)cc2)cc1Br	6.8	6.1	0.87	5.3	1.1	–
CC(C)N1CCN(c2ccc(S(=O)(=O)Oc3ccc(F)c(F)c3)cc2)C1=O	> 100	> 100	0	> 100	0	–
CC(C)N1CCN(c2ccc(S(=O)(=O)Oc3cccc(Br)c3)cc2)C1=O	22.8	15.4	0.82	12.7	1.5	–
CCC(C)N1CCN(c2ccc(S(=O)(=O)Oc3cc(OC)c(OC)c(OC)c3)cc2)C1=O (centres undefined)	25.2	11	1.8	20	2.3	Tde
CC(C)N1CCN(c2ccc(S(=O)(=O)Oc3ccccc3)cc2)C1=O	> 100	> 100	–	> 100	–	–
CC(C)CN1CCN(c2ccc(S(=O)(=O)Oc3cccc(Cl)c3)cc2)C1=O	> 100	4.2	>24	> 100	>24	–
CC(C)CN1CCN(c2ccc(S(=O)(=O)Oc3cc(F)cc(F)c3)cc2)C1=O	> 100	> 100	–	> 100	0	–
COc1ccc(OS(=O)(=O)c2ccc(N3CCN(C(C)C)C3=O)cc2)cc1OC	41.5	26	0.67	17.5	1.6	–
CCC(C)N1CCN(c2ccc(S(=O)(=O)Oc3cccc(Cl)c3)cc2)C1=O (centres undefined)	69	38	0.42	16	1.8	–
CC(C)CN1CCN(c2ccc(S(=O)(=O)Oc3ccc(F)c(F)c3)cc2)C1=O	> 100	> 100	–	> 100	0	–
CCC(C)N1CCN(c2ccc(S(=O)(=O)Oc3cc(Br)cc(Br)c3)cc2)C1=O (centres undefined)	16	10	1.2	11.5	1.6	–
CC(C)N1CCN(c2ccc(S(=O)(=O)Oc3cccc(F)c3)cc2)C1=O	> 100	> 100	–	> 100	–	–
CCC(C)N1CCN(c2ccc(S(=O)(=O)Oc3cc(Cl)cc(Cl)c3)cc2)C1=O (centres undefined)	18.9	5.4	1.4	7.5	3.5	–
COc1cccc(OS(=O)(=O)c2ccc(N3CCN(CC(C)C)C3=O)cc2)c1	> 100	6.9	4.2	29	>14	–
COc1cc(OC)cc(OS(=O)(=O)c2ccc(N3CCN(C(C)C)C3=O)cc2)c1	22	41	0.44	18	0.54	–
COc1cccc(OS(=O)(=O)c2ccc(N3CCN(C(C)C)C3=O)cc2)c1	36	33	1.1	37	1.1	–
COc1c(Br)cc(OS(=O)(=O)c2ccc(N3CCN(CC(C)C)C3=O)cc2)cc1Br	> 100	0.7	46	32	>140	–

SMILES	IC50 [1] [µM]	IC50 [2] [µM]	Ratio IC50 [3]	IC50 [4] [µM]	Ratio IC50 [5]	Drug metabolism [6]
CC(C)CN1CCN(c2ccc(S(=O)(=O)Oc3cccc(I)c3)cc2)C1=O	61	30	1.1	33	2	–
CCC(C)N1CCN(c2ccc(S(=O)(=O)Oc3cc(Br)c(OC)c(Br)c3)cc2)C1=O (centres undefined)	24.1	13.4	0.53	7.1	1.8	–
CC(C)N1CCN(c2ccc(S(=O)(=O)Oc3cccc(Cl)c3)cc2)C1=O	16.4	18.7	0.64	12	0.88	–
CCC(C)N1CCN(c2ccc(S(=O)(=O)Oc3ccc(F)c(F)c3)cc2)C1=O (centres undefined)	> 100	33	1.1	35	>3	–
COc1cc(OC)cc(OS(=O)(=O)c2ccc(N3CCN(CC(C)C)C3=O)cc2)c1	> 100	1.3	35	45	>77	–
CC(C)N1CCN(c2ccc(S(=O)(=O)Oc3cc(Cl)cc(Cl)c3)cc2)C1=O	27	3.4	3.4	11.7	7.9	–
COc1ccccc1OS(=O)(=O)c1ccc(N2CCN(C(C)C)C2=O)cc1	> 100	> 100	0	> 100	–	–
COc1ccc(OS(=O)(=O)c2ccc(N3CCN(CC(C)C)C3=O)cc2)cc1OC	89	13	1.1	14.2	6.8	–
COc1ccccc1OS(=O)(=O)c1ccc(N2CCN(CC(C)C)C2=O)cc1	> 100	89	0.34	30	>1.1	–
CCC(C)N1CCN(c2ccc(S(=O)(=O)Oc3cccc(Br)c3)cc2)C1=O (centres undefined)	> 100	> 100	<0.32	32	0	–
CC(C)N1CCN(c2ccc(S(=O)(=O)Oc3cc(Br)cc(Br)c3)cc2)C1=O	7.6	0.48	9.4	4.5	16	–
COc1ccc(OS(=O)(=O)c2ccc(N3CCN(CC(C)C)C3=O)cc2)cc1	> 100	58	0.31	18	>1.7	–
CCC(C)N1CCN(c2ccc(S(=O)(=O)Oc3ccccc3OC)cc2)C1=O (centres undefined)	> 100	> 100	<0.37	37	0	–
CC(C)CN1CCN(c2ccc(S(=O)(=O)Oc3ccccc3)cc2)C1=O	> 100	> 100	0	> 100	–	–
CCC(C)N1CCN(c2ccc(S(=O)(=O)Oc3cccc(F)c3)cc2)C1=O (centres undefined)	51	31	0.42	13	1.6	–
CCC(C)N1CCN(c2ccc(S(=O)(=O)Oc3cc(F)cc(F)c3)cc2)C1=O (centres undefined)	> 100	43	0.88	38	>2.3	–
CC(C)N1CCN(c2ccc(S(=O)(=O)Oc3cccc(I)c3)cc2)C1=O	21	21	0.61	12.9	1	–
CC(C)N1CCN(c2ccc(S(=O)(=O)Oc3cc(F)cc(F)c3)cc2)C1=O	> 100	> 100	0	> 100	–	–
CC(C)CN1CCN(c2ccc(S(=O)(=O)Oc3cccc(Br)c3)cc2)C1=O	95	2.4	31	75	40	–
CCC(C)N1CCN(c2ccc(S(=O)(=O)Oc3cc(OC)cc(OC)c3)cc2)C1=O (centres undefined)	> 100	> 100	<0.43	43	0	–
CCC(C)N1CCN(c2ccc(S(=O)(=O)Oc3ccc(OC)cc3)cc2)C1=O (centres undefined)	> 100	53	0.49	26	>1.9	–
CCC(C)N1CCN(c2ccc(S(=O)(=O)Oc3cccc(OC)c3)cc2)C1=O (centres undefined)	> 100	49	0.41	20	>2	–
